This is an account of results in patent publication US20090099191A1, “INHIBITION OF NF-KB” (priority 2006, published 2009).

Data set [1] concerns DNA. In words: DNA damaging activity.
The next data set relates to tumor and normal cells. In words: Toxicity to tumor versus normal cells. The data set is classed as cell-based. As to conditions: in vitro and in vivo. Here is the method: 5×10^3 of cells were plated in 6 well plates and treated with different concentrations of drugs for 24 hours. Then fresh drug-free medium was added. Number of colonies was estimated after 5-6 days of incubation. Cell survival was estimated as a percentage of intensity of methylene blue staining of treated cells, comparing with untreated control (methylene blue from stained colonies was extracted by 0.1% of SDS and quantitated spectrophotometrically).

The test system of data set [2] is variety of tumor cell types. Kind of data set: p53 activation and p53-dependent killing of tumor cell types. It counts as cell-based. The following applies: besides RCC.
For another data set, the system named is NF-κB. Kind of data set: NF-κB activity in tumor cells. The data set is classed as cell-based.
In data set [3] the test system is p53 transactivation in RCC45ConALacZ cells. Kind of data set: RCC cell-based p53-responsive reporter (ConALacZ) screening. The text has this:
Reporter cell lines with p53 responsive β-galactosidase were described in Gurova, et al. (2004). Cancer Res 64, 1951-1958. Reporter cell lines with p53 responsive luciferase was generated by transfection of p21-ConALuc plasmid with following selection on G418. Reporter cell lines with NF-κB-dependent luciferase were obtained by cotransfection of pNF-κBLuc and pEGFP-mito (Clontech) plasmids followed by selection on G418 (marker provided by pEGFP-mito plasmid). Reporter cell lines with myc, or Clock/Bmal responsive reporters were kindly provided by C. Burkhart and M. Antoch (Cleveland Clinic Foundation, OH).
2×10^4 of RCC45ConALacZ cells were plated into wells of 96 well plates in 200 μL of phenol-red free RPMI medium with standard additives. […] After 3 hours of incubation at 37° C., β-galactosidase activity was estimated by reading absorbance values Wallack 1420 plate reader (Perkin Elmer) at λ=430 nm.
For cotransfection set-up, 2×10^5 cells were plated into 6 well plates and, after overnight incubation, transfected with Lipofectamin Plus reagent (Gibco BRL) with 0.5 μg of reporter plasmids (p21-ConALuc or pNF-κBLuc) in combination with different concentrations of p53, Arf, Ss-IκB, or siHDM2 expressing plasmids. […] Luminometric and colorimetric reactions were read on the Wallack 1420 plate reader (Perkin Elmer). […]

Data set [4] relates to DNA. The following applies: intercalation; cited from earlier work.

SMILES strings stand for the structures.

`Nc1c2ccccc2nc2ccccc12` [Compound 9AA, 9-aminoacridine]: the DNA damaging activity result in the data set on DNA [1] was “did not show DNA damaging activity”. For the same compound, the “toxicity to tumor versus normal cells” value with tumor and normal cells is reported as “more toxic to tumor than to normal cells”. For the same compound, in data set [2], the p53-dependent killing result is on record as “p53-dependent killing” and the p53 activation result is recorded as “capable of p53 activation”. Further, the “effect on stimulated and basal constitutive NF-κB activity” value in the data set with NF-κB is “block stimulated NF-κB activity and also effectively reduce basal levels of constitutive NF-κB activity”.

`CCN(CC)CCCC(C)Nc1c2ccc(Cl)cc2nc2ccc(OC)cc12` (stereo not drawn) [Quinacrine]: the “p53 reactivation relative to doxorubicin” value in data set [3] (RCC45 cells, library of 59 derivatives of compound 30d9, fold of p53 activation over the effect of 2 μM of doxorubicin (FIG. 3B)) was “intermediate level of activity”. In addition, the DNA damaging activity entry with DNA [1] is reported as “did not show DNA damaging activity”. Also, in the data set on tumor and normal cells, the “toxicity to tumor versus normal cells” value is recorded as “more toxic to tumor than to normal cells”. Further, in data set [2], the p53-dependent killing result was “p53-dependent killing” and the p53 activation result is on record as “capable of p53 activation”.

For the compound `Cc1c2ccncc2c(C)c2c1[nH]c1ccccc12` [ellipticine], in data set [3] (RCC45ConALacZ cell-based reporter assay), the “identified as p53 activator / hit in reporter screen” value is on record as “identified”. In addition, the DNA binding affinity in the data set on DNA [4] is reported as 10^6 M^−1.
